# Where two headings read alike, the source gives them in different places.
# Experiments:
# Format in all cases: cell-based, Staphylococcus aureus
# S. aureus CF7A-L = assay: MIC, microdilution in CAMHB 24 h; conditions: Staphylococcus aureus; CF7A-L; Human (CF lungs); MRSA; read-out: MIC
# S. aureus Newman = assay: MIC, microdilution in CAMHB 24 h; conditions: Newman; for MIC: Staphylococcus aureus
# S. aureus Sa220c = assay: MIC, microdilution in CAMHB 24 h; conditions: Sa220c; for MIC: Staphylococcus aureus
# S. aureus N315 = assay: microbe, parasite or virus in culture; conditions: for MIC: Staphylococcus aureus
# S. aureus SHY97-3906 = assay: MIC, microdilution in CAMHB 24 h; conditions: for MIC: Staphylococcus aureus, SHY973906
# S. aureus CF6B-L = assay: MIC, microdilution in CAMHB 24 h; conditions: CF6B-L; for MIC: Staphylococcus aureus, CF6BL
# S. aureus ATCC 29213 = assay: Checkerboard assay, aminoglycoside and tomatidine; conditions: for MIC: Staphylococcus aureus, ATCC29213, checkerboard
# Protocol: This checkerboard protocol (Eliopoulos and Moellering, 1996) was conducted by a microdilution method similar to that use for standard MICs determination. In 96 wells plates, antibiotics were loaded at a 4× concentration (where X is the maximal tested concentration) in well A1 and at a 2× concentration in the others wells of the column 1. Antibiotics were serially diluted 1:1 from the column 2 to column 10. […] Wells A12, B12, […] are positive untreated controls whereas wells […] are negative non-inoculated controls. […] The FIC index was calculated as follow (Eliopoulos and Moellering, 1996): FIC […]/MICB, where A and B are MICs of compounds A and B in combination and where MICA and MICB are the MICs of compound A alone and of compound B alone, respectively, and FICA and FICB are the FICs of compound A and of compound B, respectively.
# S. aureus MA078038 = assay: MIC, microdilution in CAMHB 24 h; conditions: for MIC: Staphylococcus aureus
# S. aureus MRSA COL = assay: MIC, microdilution in CAMHB 24 h; conditions: MRSA COL; for MIC: Staphylococcus aureus
# [1] = 8 μg/ml of tomatidine, read-out: MIC +TO
# [2] = absence of tomatidine, read-out: MIC −TO
compound,measurement,setting,value
"NC[C@H]1O[C@H](O[C@H]2[C@H](O)[C@@H](O[C@H]3O[C@H](CO)[C@@H](O)[C@H](N)[C@H]3O)[C@H](N)C[C@@H]2N)[C@H](N)C[C@@H]1O [Tobramycin, tobramycin]",MIC,S. aureus CF7A-L,1020 µg/mL
same,Fold (−TO/+TO),S. aureus Newman; 8 μg/ml of tomatidine,2-8 fold
same,MIC,S. aureus Newman; [1],0.06 to 0.12 µg/mL
same,MIC,"S. aureus Newman; Human (Osteo), read-out: MIC",0.25 to 0.5 µg/mL
same,MIC,S. aureus Newman; [2],0.25 to 0.5 µg/mL
same,Fold (−TO/+TO),S. aureus Sa220c; 8 μg/ml of tomatidine,4-16 fold
same,MIC,S. aureus Sa220c; [1],0.06 to 0.12 µg/mL
same,MIC,"S. aureus Sa220c; Human (SSTI), MRSA, read-out: MIC",0.5 to 1 µg/mL
same,MIC,S. aureus Sa220c; [2],0.5 to 1 µg/mL
same,Fold (−TO/+TO),"S. aureus N315; N315, 8 μg/ml of tomatidine",2-4 fold
same,MIC,S. aureus N315; MRSA,512 µg/mL
same,MIC,"S. aureus N315; N315, read-out: MIC +TO",128 to 256 µg/mL
same,MIC,"S. aureus N315; N315, read-out: MIC −TO",512 µg/mL
same,Fold (−TO/+TO),"S. aureus SHY97-3906; SHY-3906, 8 μg/ml of tomatidine",8 fold
same,MIC,"S. aureus SHY97-3906; SHY97-3906, Cow (mastitis), read-out: MIC",0.25 µg/mL
same,MIC,"S. aureus SHY97-3906; SHY-3906, 8 μg/ml of tomatidine, read-out: MIC +TO",0.03 µg/mL
same,MIC,"S. aureus SHY97-3906; SHY-3906, absence of tomatidine, read-out: MIC −TO",0.25 µg/mL
same,Fold (−TO/+TO),S. aureus CF6B-L; 8 μg/ml of tomatidine,4-16 fold
same,MIC,"S. aureus CF6B-L; aac(6′)-aph(2″), 8 μg/ml of tomatidine, read-out: MIC +TO",16 to 64 µg/mL
same,MIC,"S. aureus CF6B-L; aac(6′)-aph(2″), absence of tomatidine, read-out: MIC −TO",256 µg/mL
same,MIC,"S. aureus CF6B-L; Human (CF lungs), read-out: MIC",256 µg/mL
same,MIC,S. aureus ATCC 29213; tomatidine 0 μg/ml,0.25 to 0.5 µg/mL
same,MIC,S. aureus ATCC 29213; tomatidine 0.06 μg/ml,0.25 µg/mL
same,MIC,S. aureus ATCC 29213; tomatidine 0.12 μg/ml,0.03 to 0.12 µg/mL
same,MIC,S. aureus ATCC 29213; tomatidine 0.25 μg/ml,0.03 to 0.06 µg/mL
same,MIC,S. aureus ATCC 29213; tomatidine 0.5 μg/ml,0.03 µg/mL
same,MIC,S. aureus ATCC 29213; tomatidine 1 μg/ml,0.03 to 0.06 µg/mL
same,MIC,S. aureus ATCC 29213; tomatidine 2 μg/ml,0.03 to 0.06 µg/mL
same,MIC,S. aureus ATCC 29213; tomatidine 4 μg/ml,0.03 to 0.06 µg/mL
same,MIC,S. aureus ATCC 29213; tomatidine 8 μg/ml,0.06 µg/mL
same,FIC index,"S. aureus ATCC 29213; aminoglycoside with tomatidine, tomatidine MIC considered 32 μg/ml, values overestimated",≦0.133
same,Fold (−TO/+TO),"S. aureus MA078038; MA078038, 8 μg/ml of tomatidine",4-8 fold
same,MIC,"S. aureus MA078038; MA078038, aph(3′)-IIIa, 8 μg/ml of tomatidine, read-out: MIC +TO",0.06 to 0.12 µg/mL
same,MIC,"S. aureus MA078038; MA078038, aph(3′)-IIIa, absence of tomatidine, read-out: MIC −TO",0.5 µg/mL
same,MIC,"S. aureus MA078038; MA078038, Human (CA), MRSA, read-out: MIC",0.5 µg/mL
same,Fold (−TO/+TO),S. aureus MRSA COL; 8 μg/ml of tomatidine,8-16 fold
same,MIC,S. aureus MRSA COL; [1],0.06 µg/mL
same,MIC,"S. aureus MRSA COL; Human (SSTI), read-out: MIC",0.5 to 1 µg/mL
same,MIC,S. aureus MRSA COL; [2],0.5 to 1 µg/mL
